Experimental data: PubChem BioAssay AID1963845 (Molecular Pharmacology Branch, DTP, NCI, 2024)

Tested on: 429239-143-T-J1-PDC complex spheroid viability
Assay: Anticancer human tumor 429239-143-T-J1-PDC patient-derived small cell lung carcinoma cell line growth inhibition [POLQ]
Details: for IC50: curve of first compound; for viability, T/C: stronger effect = lower value; active means viability on the fitted dose curve at most 10% of control; inactive means the rest
Outline: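 Patient-derived tumour cells were co-cultured with HUVEC and mesenchymal stem cells as multicellular spheroids at 37 °C. They were treated with POLQ inhibitors (novobiocin, ART-558, RP6685) alone or combined with other agents. Top concentrations were at or near clinical Cmax (otherwise 10 microM; SN-38 at 1 microM), decreasing in half-log steps.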

[1] = second compound 0.0316 µM, first compound 0.00316 µM
[2] = second compound 0.0316 µM, first compound 0.01 µM
[3] = second compound 0.0316 µM, first compound 0.0316 µM
[4] = second compound 0.0316 µM, first compound 0.1 µM
[5] = second compound 0.1 µM, first compound 0.00316 µM
[6] = second compound 0.1 µM, first compound 0.01 µM
[7] = second compound 0.1 µM, first compound 0.0316 µM
[8] = second compound 0.1 µM, first compound 0.1 µM
[9] = second compound 0.316 µM, first compound 0.00316 µM
[10] = second compound 0.316 µM, first compound 0.01 µM
[11] = second compound 0.316 µM, first compound 0.0316 µM
[12] = second compound 0.316 µM, first compound 0.1 µM
[13] = second compound 1 µM, first compound 0.00316 µM
[14] = second compound 1 µM, first compound 0.01 µM
[15] = second compound 1 µM, first compound 0.0316 µM
[16] = second compound 1 µM, first compound 0.1 µM
[17] = second compound 3.16 µM, first compound 0.00316 µM
[18] = second compound 3.16 µM, first compound 0.01 µM
[19] = second compound 3.16 µM, first compound 0.0316 µM
[20] = second compound 3.16 µM, first compound 0.1 µM
[21] = second compound 10 µM, first compound 0.00316 µM
[22] = second compound 10 µM, first compound 0.01 µM
[23] = second compound 10 µM, first compound 0.0316 µM
[24] = second compound 10 µM, first compound 0.1 µM
[25] = second compound 0.0316 µM, first compound 0.316 µM
[26] = second compound 0.0316 µM, first compound 1 µM
[27] = second compound 0.1 µM, first compound 0.316 µM
[28] = second compound 0.1 µM, first compound 1 µM
[29] = second compound 0.316 µM, first compound 0.316 µM
[30] = second compound 0.316 µM, first compound 1 µM
[31] = second compound 1 µM, first compound 0.316 µM
[32] = second compound 1 µM, first compound 1 µM
[33] = second compound 3.16 µM, first compound 0.316 µM
[34] = second compound 3.16 µM, first compound 1 µM
[35] = second compound 10 µM, first compound 0.316 µM
[36] = second compound 10 µM, first compound 1 µM
[37] = second compound 0.0316 µM, first compound 3.16 µM
[38] = second compound 0.0316 µM, first compound 10 µM
[39] = second compound 0.1 µM, first compound 3.16 µM
[40] = second compound 0.1 µM, first compound 10 µM
[41] = second compound 0.316 µM, first compound 3.16 µM
[42] = second compound 0.316 µM, first compound 10 µM
[43] = second compound 1 µM, first compound 3.16 µM
[44] = second compound 1 µM, first compound 10 µM
[45] = second compound 3.16 µM, first compound 3.16 µM
[46] = second compound 3.16 µM, first compound 10 µM
[47] = second compound 10 µM, first compound 3.16 µM
[48] = second compound 10 µM, first compound 10 µM
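Further: luminescence signal used as surrogate measure of viable cells; spheroids exposed to compounds for seven days before readout.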
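Wherever viability, T/C is given: 100% = DMSO vehicle control viability as luminescence relative to vehicle.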

CC[C@@]1(O)C(=O)OCc2c1cc1n(c2=O)Cc2cc3c(CN(C)C)c(O)ccc3nc2-1 + Cc1cccc(N(C)C(=O)C2C(O)CCN2c2nc(C)cc(C(F)(F)F)c2C#N)c1
15.5 nM: IC50 (second compound 0.1 µM) | IC50 (second compound 0.316 µM)
15.3 nM: IC50 (second compound 1 µM)
inactive: viability, T/C (second compound 0.0316 µM, first compound 0.000316 µM) 102% | viability, T/C (second compound 0.0316 µM, first compound 0.001 µM) 98.8% | viability, T/C [1] 94.6% | viability, T/C [2] 51.7% | viability, T/C [3] 18.5% | viability, T/C [4] 18.2% | viability, T/C (second compound 0.1 µM, first compound 0.000316 µM) 100% | viability, T/C (second compound 0.1 µM, first compound 0.001 µM) 106% | viability, T/C [5] 96.3% | viability, T/C [6] 69.9% | viability, T/C [7] 15.8% | viability, T/C [8] 18.5% | viability, T/C (second compound 0.316 µM, first compound 0.000316 µM) 102% | viability, T/C (second compound 0.316 µM, first compound 0.001 µM) 107% | viability, T/C [9] 88.7% | viability, T/C [10] 70.3% | viability, T/C [11] 14.9% | viability, T/C [12] 18.3% | viability, T/C (second compound 1 µM, first compound 0.000316 µM) 99.1% | viability, T/C (second compound 1 µM, first compound 0.001 µM) 105% | viability, T/C [13] 103% | viability, T/C [14] 68.8% | viability, T/C [15] 17.9% | viability, T/C [16] 16.9% | viability, T/C (second compound 3.16 µM, first compound 0.000316 µM) 106% | viability, T/C (second compound 3.16 µM, first compound 0.001 µM) 90.4% | viability, T/C [17] 94.2% | viability, T/C [18] 58% | viability, T/C [19] 19.3% | viability, T/C [20] 18.9% | viability, T/C (second compound 10 µM, first compound 0.000316 µM) 101% | viability, T/C (second compound 10 µM, first compound 0.001 µM) 96.2% | viability, T/C [21] 94.3% | viability, T/C [22] 57.9% | viability, T/C [23] 20.4% | viability, T/C [24] 19.6%
12.7 nM: IC50 (second compound 3.16 µM)
10.5 nM: IC50 (second compound 0.0316 µM)
12.8 nM: IC50 (second compound 10 µM)

CCc1c2c(nc3ccc(O)cc13)-c1cc3c(c(=O)n1C2)COC(=O)[C@]3(O)CC + Cc1cccc(N(C)C(=O)C2C(O)CCN2c2nc(C)cc(C(F)(F)F)c2C#N)c1
active: viability, T/C [26] 5.41% | viability, T/C [28] 4.17% | viability, T/C [30] 6.26% | viability, T/C [32] 3.94% | viability, T/C [34] 5.15% | viability, T/C [36] 3.41%
< 3.16 nM: IC50 (second compound 0.0316 µM) | IC50 (second compound 0.1 µM) | IC50 (second compound 0.316 µM) | IC50 (second compound 1 µM) | IC50 (second compound 3.16 µM) | IC50 (second compound 10 µM)
inactive: viability, T/C [1] 16.9% | viability, T/C [2] 17.8% | viability, T/C [3] 16.1% | viability, T/C [4] 17.5% | viability, T/C [25] 13.3% | viability, T/C [5] 17.8% | viability, T/C [6] 18.5% | viability, T/C [7] 17.6% | viability, T/C [8] 19% | viability, T/C [27] 13.6% | viability, T/C [9] 16.2% | viability, T/C [10] 20.4% | viability, T/C [11] 16.4% | viability, T/C [12] 17.6% | viability, T/C [29] 14.1% | viability, T/C [13] 21.1% | viability, T/C [14] 16.7% | viability, T/C [15] 17.5% | viability, T/C [16] 16.5% | viability, T/C [31] 17.5% | viability, T/C [17] 19.9% | viability, T/C [18] 17.4% | viability, T/C [19] 21.6% | viability, T/C [20] 16.1% | viability, T/C [33] 14.9% | viability, T/C [21] 18.9% | viability, T/C [22] 17.5% | viability, T/C [23] 20.7% | viability, T/C [24] 17.5% | viability, T/C [35] 17.9%

Nc1ccn(C2OC(CO)C(O)C2(F)F)c(=O)n1 (stereo not drawn) + Cc1cccc(N(C)C(=O)C2C(O)CCN2c2nc(C)cc(C(F)(F)F)c2C#N)c1
< 31.6 nM: IC50 (second compound 0.0316 µM) | IC50 (second compound 0.1 µM) | IC50 (second compound 0.316 µM) | IC50 (second compound 1 µM) | IC50 (second compound 3.16 µM) | IC50 (second compound 10 µM)
inactive: viability, T/C [3] 19.2% | viability, T/C [4] 20.4% | viability, T/C [25] 17.1% | viability, T/C [26] 18% | viability, T/C [37] 18.3% | viability, T/C [38] 17.3% | viability, T/C [7] 20.3% | viability, T/C [8] 20% | viability, T/C [27] 15.1% | viability, T/C [28] 20.4% | viability, T/C [39] 18% | viability, T/C [40] 16.5% | viability, T/C [11] 18.5% | viability, T/C [12] 16.1% | viability, T/C [29] 18.6% | viability, T/C [30] 20.8% | viability, T/C [41] 19.3% | viability, T/C [42] 17.1% | viability, T/C [15] 21.8% | viability, T/C [16] 16.5% | viability, T/C [31] 18.2% | viability, T/C [32] 16.6% | viability, T/C [43] 17.2% | viability, T/C [44] 17.5% | viability, T/C [19] 25.2% | viability, T/C [20] 17.2% | viability, T/C [33] 21.9% | viability, T/C [34] 18.5% | viability, T/C [45] 15.5% | viability, T/C [46] 18.3% | viability, T/C [23] 24.9% | viability, T/C [24] 15.6% | viability, T/C [35] 20.8% | viability, T/C [36] 17.9% | viability, T/C [47] 20.2% | viability, T/C [48] 19.4%

O=C(c1cc(Cc2n[nH]c(=O)c3ccccc23)ccc1F)N1CCN(C(=O)C2CC2)CC1 + Cc1cccc(N(C)C(=O)C2C(O)CCN2c2nc(C)cc(C(F)(F)F)c2C#N)c1
1570 nM: IC50 (second compound 0.0316 µM)
inactive: viability, T/C [3] 104% | viability, T/C [4] 84.5% | viability, T/C [25] 82.9% | viability, T/C [26] 65.4% | viability, T/C [37] 28.9% | viability, T/C [38] 19.9% | viability, T/C [7] 85.1% | viability, T/C [8] 81.3% | viability, T/C [27] 78% | viability, T/C [28] 55.8% | viability, T/C [39] 35.3% | viability, T/C [40] 17.9% | viability, T/C [11] 94.2% | viability, T/C [12] 82.5% | viability, T/C [29] 81.9% | viability, T/C [30] 61.3% | viability, T/C [41] 35% | viability, T/C [42] 18.7% | viability, T/C [15] 83.5% | viability, T/C [16] 78.9% | viability, T/C [31] 80.6% | viability, T/C [32] 63.4% | viability, T/C [43] 35.5% | viability, T/C [44] 18.6% | viability, T/C [19] 92.6% | viability, T/C [20] 78.7% | viability, T/C [33] 81.5% | viability, T/C [34] 66.3% | viability, T/C [45] 36.5% | viability, T/C [46] 21% | viability, T/C [23] 89.5% | viability, T/C [24] 91.9% | viability, T/C [35] 70.9% | viability, T/C [36] 58.2% | viability, T/C [47] 37% | viability, T/C [48] 18.7%
1500 nM: IC50 (second compound 10 µM)
1460 nM: IC50 (second compound 0.1 µM)
1750 nM: IC50 (second compound 1 µM)
1650 nM: IC50 (second compound 0.316 µM)
1880 nM: IC50 (second compound 3.16 µM)
